The target of one test is FPR1 (Homo sapiens (Human), UniProt P21462). The experiment in a line: Agonistic activity (calcium FLIPR) in hFPR1-Gα15-CHO cells. The format is cell-based. The note with it: FLIPR Calcium 5 dye fluorescence, agonistic response. How it is done:
(§1) Cells (hFPR1-Gα15-CHO or hFPR2-Aq-CHO) are suspended in 10 mL of respective complete medium (F12(1×) HAM media; 10% HI-FBS; 0.1 mg/ml Hygromycin B and 0.2 mg/ml Zeocin [for hFPR1 only]; 0.4 mg/mL Geneticin and 0.25 mg/ml Zeocin [for hFPR2-Aq only]) and viability is checked using Trypan Blue exclusion. After washing, the cells are plated at 10,000 cells per well in 40 μL complete medium in a 384-well sterile clear bottom black plate and incubated in a 5% CO2 incubator at 37° C. for 18 hours. Plating media is removed from each well by decanting and gentle tapping before 30 μL of 0.5× Calcium 5 dye solution (0.5×FLIPR Calcium 5 dye (Molecular devices, R8186)); HBSS; 20 mM HEPES; 2.5 mM Probenecid; 0.025% Pluronic F-127; pH adjusted to 7.4) is added to each well and the plate is then incubated at 37° C. for 30 minutes. For the assay the plate is equilibrated at room temperature for 10 minutes before placing it in the FLIPR. Compounds are dissolved in DMSO and serially diluted over an 11 point half log (3.16 fold) dilution (2 mM to 20 nM). Compounds are then diluted 1:50 in assay buffer (HBSS; 20 mM HEPES; 2.5 mM Probenecid; 0.05% gelatin; 0.1% BSA; pH adjusted to 7.4) just before performing the assay. Compounds are finally added to the respective wells of the cell plate (final assay concentration 10 μM to 100 pM) using the FLIPR (e.g. FLIPR-Tetra, Molecular Devices) and fluorescence readings are captured for 5 minutes. The increase in fluorescence from the basal reading in the presence of the compounds is compared with that of the control wells (wells having no compound) to calculate the activity of the compounds. The EC50 values of the compounds can be determined using e.g. Graph pad Prism software.
(§2) Assay Method for Measuring Agonistic Activity of Compounds in hFPR1-Gα15-CHO and hFPR2-Aq-CHO Cell
(§3) Cryo-vial containing 6×10^6 cells (hFPR1-Gα15-CHO or hFPR2-Aq-CHO) was thawed in a 37° C. water bath. Cells were suspended in 10 ml of respective complete growth media (F12(1×) HAM media (Gibco; Cat#11765); 10% HI-FBS (Gibco; Cat#10082); 0.1 mg/ml Hygromycin B (Invitrogen; Cat#10687-010) [for hFPR1 only]; 0.2 mg/ml Zeocin (Invitrogen; Cat#R25001) [for hFPR1 only]; 0.4 mg/ml Geneticin (Gibco; Cat#10131) [for hFPR2-Aq only]; 0.25 mg/ml Zeocin (Invitrogen; Cat#R25001) [for hFPR2-Aq only]) in a 15 ml centrifuge tube. The cell viability was checked with the help of Trypan Blue dye. Upon washing the cells, those were plated in a 384-well sterile clear bottom black plate (Greiner Bioone Cat#781091) so that, each well contained 10,000 cells in 40 μl complete growth media. The plate was incubated in a 5% CO2 incubator at 37° C. for 18 hours.
(§4) Before assay on the next day, the cell plating media was removed from each well of the plate by decanting and gentle tapping. 30 μl, 0.11 of 0.5× Calcium 5 dye solution (0.5×FLIPR Calcium 5 dye (Molecular devices Cat# R8186); HBSS (Invitrogen; Cat#14025); 20 mM HEPES (Sigma; Cat#H0887); 2.5 mM Probenecid (Sigma; Cat#P8761); 0.025% Pluronic F-127 (Sigma; Cat#P2443); pH adjusted to 7.4) was added to each well. The plate was then incubated at 37° C. for 30 minutes. Following which the plate was equilibrated at room temperature for 10 minutes before placing it in a 384 well FLIPR for assay. Compounds were dissolved in DMSO and serially diluted following 11 point half log (3.16 fold) dilution with a starting concentration of 2 mM (Final assay concentration 10 μM). Aliquots of above mentioned each dilution was mixed with assay buffer (HBSS (Invitrogen; Cat#14025); 20 mM HEPES (Sigma; Cat#H0887); 2.5 mM Probenecid (Sigma; Cat#P8761); 0.05% gelatin (Sigma; Cat#G1890); 0.1% BSA (Sigma; Cat#A3059); pH adjusted to 7.4) just before performing the assay. Compounds were added to the respective wells of the assay ready cell plate with the help of the FLIPR (FLIPR Tetra) and fluorescence readings were captured for 5 minutes to measure any agonistic response of the compounds. […]

The next test concerns the target FPR2 (Homo sapiens (Human), UniProt P25090). The experiment in a line: Agonistic activity (calcium FLIPR) in hFPR2-Aq-CHO cells. The note with it: FLIPR Calcium 5 dye fluorescence, agonistic response. The format is cell-based. How it is done:
as §1, §2, §3, §4

The values that follow come from patent US10265310B2, “6-membered cyclic amines or lactames substituted with urea and phenyl” (GRÜNENTHAL GMBH, priority 2016, dated 2019).

Chain of FPR2 (P25090 whole entry): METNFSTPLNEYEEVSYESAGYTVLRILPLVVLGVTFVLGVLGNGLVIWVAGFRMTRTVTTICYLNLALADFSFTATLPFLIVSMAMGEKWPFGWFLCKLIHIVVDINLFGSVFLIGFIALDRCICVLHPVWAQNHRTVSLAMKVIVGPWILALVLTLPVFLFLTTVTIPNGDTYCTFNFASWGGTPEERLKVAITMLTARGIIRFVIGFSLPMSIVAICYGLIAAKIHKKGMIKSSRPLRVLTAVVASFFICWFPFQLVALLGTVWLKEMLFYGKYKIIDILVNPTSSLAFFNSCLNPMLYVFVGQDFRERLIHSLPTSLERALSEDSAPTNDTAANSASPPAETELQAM
Chain of FPR1 (P21462 whole entry): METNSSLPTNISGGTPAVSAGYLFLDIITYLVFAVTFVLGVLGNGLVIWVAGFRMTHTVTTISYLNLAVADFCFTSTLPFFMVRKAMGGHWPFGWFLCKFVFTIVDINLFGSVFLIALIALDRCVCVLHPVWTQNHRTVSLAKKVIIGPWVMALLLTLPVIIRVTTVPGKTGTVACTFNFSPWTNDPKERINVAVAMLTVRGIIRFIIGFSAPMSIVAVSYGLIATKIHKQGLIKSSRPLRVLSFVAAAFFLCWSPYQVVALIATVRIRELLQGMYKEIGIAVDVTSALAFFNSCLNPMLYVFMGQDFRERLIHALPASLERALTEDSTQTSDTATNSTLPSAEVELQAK

On to `COc1ccc([C@@H]2CC(=O)N(C)C[C@H]2NC(=O)Nc2ccc(Cl)cc2)cc1` (stereo in doubt) [Example 7, rac-trans-1-(4-chlorophenyl)-3-(4-(4-methoxyphenyl)-1-methyl-6-oxopiperidin-3-yl)urea], for which the EC50 on FPR1 and at FPR2 was less than 1 nM in each case.

Consider `COc1ccc(C2C(NC(=O)Nc3ccc(Cl)cc3)CCCN2C)cc1` (single isomer, unassigned; dia1) [Example 89, dia1-1-(4-chlorophenyl)-3-(2-(4-methoxyphenyl)-1-methylpiperidin-3-yl)urea], for which the EC50 on FPR1 and on FPR2 was 1 to 1000 nM throughout.

With `COc1cc(F)c([C@@H]2CC(=O)NC[C@H]2NC(=O)Nc2cc3ccccc3s2)c(F)c1` (racemic) [Example 53, rac-trans-1-(Benzo[b]thiophen-2-yl)-3-[4-(2,6-difluoro-4-methoxy-phenyl)-6-oxo-piperidin-3-yl]-urea], the EC50 on FPR1 and at FPR2 was 1 to 1000 nM in each case.

Regarding `COc1ccc([C@@H]2CCN(C(=O)C(C)C)C[C@H]2NC(=O)Nc2ccc(Cl)cc2)cc1` (racemic) [Example 17, rac-trans-1-(4-chlorophenyl)-3-(1-isobutyryl-4-(4-methoxyphenyl)piperidin-3-yl)urea], the EC50 at FPR1 and at FPR2 was less than 1 nM in each case.

As to `COC(=O)CN1C[C@@H](NC(=O)Nc2ccc(Cl)cc2)[C@H](c2ccc(OC)cc2)CC1=O` (racemic) [Example 21, rac-trans-methyl 2-(5-(3-(4-chlorophenyl)ureido)-4-(4-methoxyphenyl)-2-oxopiperidin-1-yl)acetate], the EC50 on FPR1 and at FPR2 was less than 1 nM throughout.

In the case of `COc1cc(F)c(C2CCNCC2NC(=O)Nc2ccc(Cl)cc2)c(F)c1` (single isomer, unassigned; ent2) [Example 37, trans-ent2-1-(4-chlorophenyl)-3-(4-(2,6-difluoro-4-methoxyphenyl)piperidin-3-yl)urea], the EC50 on FPR1 and at FPR2 was 1 to 1000 nM throughout.

Turning to `COc1ccc([C@@H]2CC(=O)NC[C@H]2NC(=O)Nc2ccc(Cl)cc2)cc1` (racemic) [Example 1, rac-trans-1-(4-chlorophenyl)-3-(4-(4-methoxyphenyl)-6-oxopiperidin-3-yl)urea], the EC50 on FPR1 is 1 to 1000 nM; on FPR2, less than 1 nM.

Take `COc1cc(F)c([C@@H]2CC(=O)NC[C@H]2NC(=O)Nc2csc(Cl)c2)c(F)c1` (racemic) [Example 52, rac-trans-1-(5-Chloro-thiophen-3-yl)-3-[4-(2,6-difluoro-4-methoxy-phenyl)-6-oxo-piperidin-3-yl]-urea]: the EC50 on FPR1 is 1 to 1000 nM; at FPR2, less than 1 nM.

With `COc1ccc(C2CC(=O)NCC2NC(=O)Nc2ccc(Cl)cc2)cc1` (single isomer, unassigned; ent2) [Example 77, trans-ent2-1-(4-chlorophenyl)-3-(4-(4-methoxyphenyl)-6-oxopiperidin-3-yl)urea], the EC50 at FPR1 and on FPR2 was 1 to 1000 nM in each case.

Take `COc1ccc([C@@H]2CC(=O)N(CCO)C[C@H]2NC(=O)Nc2ccc(Cl)cc2)cc1` (racemic) [Example 32, rac-trans-1-(4-chlorophenyl)-3-(1-(2-hydroxyethyl)-4-(4-methoxyphenyl)-6-oxopiperidin-3-yl)urea]: the EC50 is 1 to 1000 nM on FPR1 and less than 1 nM on FPR2.

For `O=C(Nc1ccc(Cl)cc1)NC1CN(CC(F)F)C(=O)CC1c1ccc(F)cc1F` (single isomer, unassigned; ent2) [Example 66, trans-ent2-1-(4-Chlorophenyl)-3-[1-(2,2-difluoro-ethyl)-4-(2,4-difluoro-phenyl)-6-oxo-piperidin-3-yl]-urea], the EC50 at FPR1 and at FPR2 was 1 to 1000 nM in each case.

Consider `O=C(Nc1ccc(Cl)cc1)NC1CN(CC(F)F)C(=O)CC1c1ccc(F)cc1F` (single isomer, unassigned; ent1) [Example 65, trans-ent1-1-(4-Chlorophenyl)-3-[1-(2,2-difluoro-ethyl)-4-(2,4-difluoro-phenyl)-6-oxo-piperidin-3-yl]-urea], for which the EC50 at FPR1 and on FPR2 was 1 to 1000 nM throughout.

For the compound `COc1ccc(C2CCNCC2NC(=O)Nc2ccc(Cl)cc2)c(F)c1` (single isomer, unassigned; ent2) [Example 46, ent2-1-(4-chlorophenyl)-3-(4-(2-fluoro-4-methoxyphenyl)piperidin-3-yl)urea], the EC50 at FPR1 and on FPR2 was 1 to 1000 nM throughout.

In the case of `O=C1C[C@@H](c2c(F)cc(OC(F)F)cc2F)[C@H](NC(=O)Nc2ccc(Cl)cc2)CN1` (racemic) [Example 70, rac-trans-1-(4-chlorophenyl)-3-(4-(4-(difluoromethoxy)-2,6-difluorophenyl)-6-oxopiperidin-3-yl)urea], the EC50 on FPR1 and at FPR2 was 1 to 1000 nM in each case.

Turning to `COc1ccc(C2CCN(C(=O)C3CC3)CC2NC(=O)Nc2ccc(Cl)cc2)c(F)c1` (single isomer, unassigned; ent1) [Example 86, trans-ent1-1-(4-chlorophenyl)-3-(1-(cyclopropanecarbonyl)-4-(2-fluoro-4-methoxyphenyl)piperidin-3-yl)urea], the EC50 at FPR1 and at FPR2 was less than 1 nM throughout.

As for `COc1ccc([C@@H]2CCN(C(C)=O)C[C@H]2NC(=O)Nc2ccc(C)nc2)cc1` (racemic) [Example 26, rac-trans-1-(1-acetyl-4-(4-methoxyphenyl)piperidin-3-yl)-3-(6-methylpyridin-3-yl)urea], the EC50 on FPR1 and on FPR2 was 1 to 1000 nM throughout.

Turning to `O=C(Nc1ccc(Cl)cc1)NC1CN(C(=O)C2CC2)CCC1c1ccccc1` (single isomer, unassigned; ent1) [Example 83, trans-ent1-1-(4-chlorophenyl)-3-(1-(cyclopropanecarbonyl)-4-phenylpiperidin-3-yl)urea], the EC50 at FPR1 and on FPR2 was 1 to 1000 nM each time.

Consider `COc1ccc([C@H]2CC(=O)N(C)C[C@@H]2NC(=O)Nc2ccc(Cl)cc2)cc1` (stereo in doubt) [Example 10, trans-ent1-(4-chlorophenyl)-3-(4-(4-methoxyphenyl)-1-methyl-6-oxopiperidin-3-yl)urea], for which the EC50 on FPR1 and on FPR2 was less than 1 nM each time.

Take `COc1ccc([C@@H]2CCN(C(=O)CO)C[C@H]2NC(=O)Nc2ccc(Cl)cc2)cc1` (racemic) [Example 13, rac-trans-1-(4-chlorophenyl)-3-(1-(2-hydroxyacetyl)-4-(4-methoxyphenyl)piperidin-3-yl)urea]: the EC50 on FPR1 and at FPR2 was less than 1 nM each time.

Take `COc1cc(F)c([C@@H]2CC(=O)NC[C@H]2NC(=O)Nc2ccc(Cl)s2)c(F)c1` (racemic) [Example 51, rac-trans-1-(5-chlorothiophen-2-yl)-3-(4-(2,6-difluoro-4-methoxyphenyl)-6-oxopiperidin-3-yl)urea]: the EC50 at FPR1 and on FPR2 was 1 to 1000 nM throughout.
